Assay results as given in US20230141718A1, “METHODS OF TREATING GLIOBLASTOMA” (CELGENE QUANTICEL RESEARCH, INC., priority 2021, published 2023).
“Also recorded” adds a separate entry of the source.

Tests used:
Assay type in all cases: in vivo, human
[1] = Brain tumor tissue, plasma and CSF concentration at resection, CC-90010-GBM-001
Method: (§1) The primary objectives of the study in this example were determination of tumor tissue concentration and plasma pharmacokinetics (PK) of Compound A. The secondary and exploratory objectives included safety, antitumor activity, cerebrospinal fluid concentration, and pharmacodynamics (PD).
(§2) Patients were treated with Compound A at 30 mg daily on Day 1 to Day 4 prior to undergoing indicated tumor resection and to maintain platelet count above the minimum of […] recommended for surgery (Part A, preoperative treatment). Following recovery from surgery and a minimum of 4 weeks from the first dose of Compound A, subjects who were fit to continue were treated with Compound A at 45 mg on a 4 days on/24 days off schedule (180 mg per 28-day cycle). Maintenance treatment continued until disease progression, unacceptable toxicity, or withdrawal of consent.
The geometric mean peak of Compound A plasma concentration on Day 4 was 1.90 μM, and the median time to peak concentration was 1.75 hours. The median time from the day 4 dose of Compound A to resection was 23 hours (range, 4.6-31.3). […] At the time of resection, the geometric mean concentrations of Compound A in plasma and brain tumor tissue were 1.02 and 0.74 μM, respectively. Geometric mean free Compound A concentration in brain tissue was calculated to be 0.028 μM. Geometric mean Compound A concentration in CSF (cerebrospinal fluid) was 0.14 μM, and the mean CSF:plasma ratio was 0.17. None of the brain tumor tissue samples for PK analyses was confirmed to comprise homogeneous contrast-enhancing or non-enhancing tumor tissue, precluding measurement in these subgroups.
At Cycle 1 Day 4, the concentration of Compound A was measured in resected brain tumor from 20 subjects at 6 to 24-hour post dose. At the time of resection (N=19), the mean (f SDev) concentration of Compound A in plasma was 397 f 77.78 ng/mL (geometric mean: 389.23 ng/mL; coefficient of variation: 20.1%). The mean ratio of compound concentration in the resected brain tissue to compound concentration in plasma is 0.84 f 0.25 for 19 of the 20 subjects.

CCR1 RNA = experiment: Blood CCR1 RNA pharmacodynamics, CC-90010-GBM-002; details: for Day 4 blood CCR1 RNA downregulation: 2-4 hours post-dose
Source text: The primary objectives of the study in this example were to establish the safety, maximum tolerated dose (MTD), and recommended phase 2 dose (RP2D) of Compound A. The preliminary efficacy, pharmacokinetics, and pharmacodynamics were also investigated.
The study described in this example (CC-90010-GBM-002/NCT04324840) is a phase 1B dose-finding study investigating standard of care of Compound A in combination with TMZ with or without radiotherapy (RT) in subjects with newly diagnosed GBM. Part A of the study is escalating the oral doses of Compound A in combination with adjuvant TMZ to estimate the MTD and/or the RP2D of Compound A as adjuvant therapy and escalating the oral doses of Compound A in combination with concomitant TMZ+radiotherapy (RT) to estimate the MTD and/or the RP2D of Compound A as concomitant therapy. Part B of the study is the safety and efficacy of Compound A administered at or below the MTD determined for the adjuvant therapy (AT) and concomitant therapy (CT).
The interim results for adjuvant Compound A+temozolomide are described. For adjuvant therapy, patients received Compound A at 15, 30, or 45 mg daily (4 days on/24 days off)+temozolomide administered per label for 6 cycles (150 mg/m^2 at Cycle 1 then 200 mg/m^2; QD for 5 days), followed by Compound A at 45 mg monotherapy daily (4 days on/24 days off).

[2] = Plasma pharmacokinetics of Compound A, CC-90010-GBM-001 study
Source text: as §1
(§3) The study described in this example (CC-90010-GBM-001 study/NCT04047303) enrolled patients with progressive or recurrent astrocytoma or recurrent glioblastoma who have failed radiation and chemotherapy, and who are candidates for surgical tumor resection as part of their salvage regimen.
as §2
The blood PK, blood PD, tumor PK and tumor PD data were available for 20, 12, 20, and 11 patients, respectively.

[3] = tested on: progressive or recurrent astrocytoma or recurrent glioblastoma; experiment: Antitumor response per RANO and PFS, CC-90010-GBM-001
Source text: The Response Assessment in Neuro-Oncology criteria (RANO) is used to assess response to first-line treatment of glioblastoma. See, Leao, D. J. et al., American Journal of Neuroradiology 2019, 1-11. The RANO criteria divides response into four types of response based on imaging (MRI) and clinical features: (1) complete response (CR); (2) partial response (PR); (3) stable disease (SD); and (4) progression. For this assessment, a measurable disease is defined as bidimensional contrast-enhancing lesions with clearly defined margins, with 2 perpendicular diameters of at least 10 mm, visible on ≥2 axial slices. The nonmeasurable disease is defined as either unidimensional measurable lesions, masses with margins not clearly defined as frequently noted in the surgical margins, or lesions with maximal perpendicular diameters of <10 mm.
as §3, §2

[4] = Safety (treatment-related adverse events), CC-90010-GBM-001
Source text: as §1, §3, §2

Cn1cc(-c2cc(S(C)(=O)=O)ccc2OCC2CC2)c2ccccc2c1=O [Compound A, 4-[2-(cyclopropylmethoxy)-5-methylsulfonylphenyl]-2-methylisoquinolin-1-one]
geometric mean concentration in brain tumor tissue ([1]; at the time of resection): 0.74 µM
geometric mean concentration in plasma ([1]; at the time of resection): 1.02 µM
geometric mean concentration in plasma ([1]; at the time of resection (N=19)): 389.23 ng/mL
Geometric mean free concentration in brain tissue ([1]; calculated): 0.028 µM
Kp ([1]; human, brain tumor tissue, 30 mg, as stated in the comparison with other agents, read-out: brain tumor tissue:plasma ratio): 0.14
Geometric mean concentration in CSF (cerebrospinal fluid) ([1]; in vivo): 0.14 µM
mean CSF:plasma ratio ([1]; in vivo): 0.17
BBB / brain tumor tissue penetration ([1]; patients with recurrent high-grade glioma): found to penetrate the BBB and was detected in brain tumor tissue; also recorded: good tumor tissue penetration; also recorded: high brain penetrance
Day 4 blood CCR1 RNA downregulation (CCR1 RNA; 15-mg group): downregulated partially
Day 4 blood CCR1 RNA downregulation (CCR1 RNA; 30-mg group): ≥ 50%
CCR1 downregulation (CCR1 RNA; following first and last dose of ≥30 mg, cycle 1, CC-90010-GBM-002 (FIG. 6)): ≥ 50%
GM AUC from 0 to 24 hours (AUC0-24) ([2]; C1D1, 30 mg daily): 5083 ng·h/mL
Median tmax ([2]; C1D4): 1.9 h
mean t1/2 ([2]; C1D4): 46 h
GM AUC0-24 ([2]; C1D4, 30 mg daily): 11,250 ng h/mL
geometric mean peak plasma concentration ([2]; Day 4): 1.90 µM
median time to peak concentration ([2]; Day 4): 1.75 h
geometric mean (GM) Cmax ([2]; cycle 1, day 1 (C1D1), 30 mg daily): 392 ng/mL
GM Cmax ([2]; cycle 1, day 4 (C1D4), 30 mg daily): 720 ng/mL
PD per RANO criteria ([3]; 17 evaluable patients): 59%
stable disease per RANO criteria ([3]; 17 evaluable patients): 41%
median PFS ([3]; IDH wild-type disease, 95% CI 1.4-3.6): 3.0 months
6-month PFS rate ([3]; IDH wild-type disease, 95% CI 2.7-40.4): 16.3%
6-month PFS rate ([3]; IDH-mutant disease): 0%
median PFS ([3]; IDH-mutant disease, 95% CI 0.4-1.9): 1.2 months
Six month progression-free survival ([3]; all evaluable): 12%
Median progression-free survival (PFS) ([3]; all evaluable, 95% CI 1.4-3.3): 1.9 months
patients with Grade 3/4 TRAEs ([4]; N=20): 45%
patients with grade 3/4 thrombocytopenia ([4]; N=20): 25%
patients with serious TRAEs (hemiparesis and lethargy) ([4]; N=20): one
patients with ≥1 treatment-related adverse event (TRAE) ([4]; N=20): 90%
tolerability ([4]; in vivo): well tolerated
